Calls of active or inactive are those of the source. The calls are words filed in the database; no cut-off is given here.
Legend:
Focal adhesion kinase 1 = Focal adhesion kinase 1 (Homo sapiens, UniProt Q05397); assay: Inhibition of human PTK2 (411-689 residues) expressed in Hi-5 cells
SNU-387 [1] = assay: Antiproliferative activity against human SNU-387 cells incubated for 7 to 14 days by methylene blue dye based anchorage independent growth assay; type: functional, cell-based; settings: time 7-14 day
[2] = target: Retinal rod rhodopsin-sensitive cGMP 3',5'-cyclic phosphodiesterase subunit delta (Homo sapiens) (UniProt O43924); assay: Induction of PDE6D degradation in human A549 cells at 3 uM incubated for 18 hrs by mass spectrometry based total proteome analysis; type: cell-based
Chain of Retinal rod rhodopsin-sensitive cGMP 3',5'-cyclic phosphodiesterase subunit delta (Homo sapiens) (O43924 whole entry): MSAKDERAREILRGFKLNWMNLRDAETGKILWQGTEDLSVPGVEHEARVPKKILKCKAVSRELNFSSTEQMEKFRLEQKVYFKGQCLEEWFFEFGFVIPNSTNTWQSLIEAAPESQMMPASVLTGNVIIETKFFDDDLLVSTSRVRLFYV

A549 [3] = assay: Antiproliferative activity against C32 in human A549 cells at 3 uM incubated for 21 day; type: functional, cell-based
HLE [4] = assay: Antiproliferative activity against human HLE cells incubated for 7 to 14 days by methylene blue dye based anchorage independent growth assay; type: functional, cell-based; settings: time 7-14 day
[5] = target: T1, von Hippel-Lindau disease tumor suppressor/Focal adhesion kinase 1 (Homo sapiens, UniProt Q05397+P40337); assay: Protac activity at VHL/PTK2 in human HuH-1 cells assessed as induction of PTK2 degradation incubated for 18 hrs by protein capillary electrophoresis method; type: cell-based
Target sequence in this assay (Q05397 whole entry): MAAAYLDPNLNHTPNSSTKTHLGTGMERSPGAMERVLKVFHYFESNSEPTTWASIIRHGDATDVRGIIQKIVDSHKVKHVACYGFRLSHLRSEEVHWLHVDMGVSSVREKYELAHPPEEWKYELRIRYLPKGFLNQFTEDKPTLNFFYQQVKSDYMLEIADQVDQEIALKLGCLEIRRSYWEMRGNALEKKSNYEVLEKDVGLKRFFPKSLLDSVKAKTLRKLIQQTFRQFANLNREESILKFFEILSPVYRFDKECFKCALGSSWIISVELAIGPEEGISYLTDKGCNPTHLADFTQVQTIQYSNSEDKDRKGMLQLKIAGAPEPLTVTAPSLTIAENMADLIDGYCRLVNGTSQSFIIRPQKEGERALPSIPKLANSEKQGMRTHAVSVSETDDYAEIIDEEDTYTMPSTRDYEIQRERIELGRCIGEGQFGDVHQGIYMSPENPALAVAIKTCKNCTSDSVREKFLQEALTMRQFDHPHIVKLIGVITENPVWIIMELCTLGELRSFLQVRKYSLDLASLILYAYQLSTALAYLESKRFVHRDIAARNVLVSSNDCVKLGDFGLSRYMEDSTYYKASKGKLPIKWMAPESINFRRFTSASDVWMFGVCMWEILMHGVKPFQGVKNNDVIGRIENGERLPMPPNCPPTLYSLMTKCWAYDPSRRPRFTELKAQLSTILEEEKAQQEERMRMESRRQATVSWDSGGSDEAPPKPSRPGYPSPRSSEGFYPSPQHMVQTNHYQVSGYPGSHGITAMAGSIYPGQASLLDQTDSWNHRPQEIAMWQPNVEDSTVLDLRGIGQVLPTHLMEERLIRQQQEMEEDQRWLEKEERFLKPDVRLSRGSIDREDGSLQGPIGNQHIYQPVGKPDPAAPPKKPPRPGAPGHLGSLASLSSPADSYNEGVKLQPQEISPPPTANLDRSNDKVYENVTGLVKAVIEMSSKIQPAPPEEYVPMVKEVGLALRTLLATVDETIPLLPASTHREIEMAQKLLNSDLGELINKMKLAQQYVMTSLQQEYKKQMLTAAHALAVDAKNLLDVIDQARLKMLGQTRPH
Target sequence in this assay (P40337 whole entry): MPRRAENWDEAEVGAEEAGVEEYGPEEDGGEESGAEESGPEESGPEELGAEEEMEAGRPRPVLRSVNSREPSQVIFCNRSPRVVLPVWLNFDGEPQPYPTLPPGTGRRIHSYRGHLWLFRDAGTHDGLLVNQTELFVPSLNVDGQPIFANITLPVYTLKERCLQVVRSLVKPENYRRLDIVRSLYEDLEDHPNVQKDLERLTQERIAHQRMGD

SK-HEP1 [6] = assay: cells; settings: Homo sapiens, SK-HEP1, 144 h, read-out: pIC50 (converted)
Description: Antiproliferative activity against human SK-HEP1 cells incubated for 6 days by CellTiter-Glo luminescent cell viability assay

[7] = target: T1, von Hippel-Lindau disease tumor suppressor/Focal adhesion kinase 1; assay: Protac activity at VHL/PTK2 in human A549 cells assessed as time required for maximal induction of PTK2 degradation at 3 uM by protein capillary electrophoresis method; type: cell-based
Target sequence in this assay (P40337 whole entry partner): as the sequence (P40337 whole entry) above
Target sequence in this assay (Q05397 2-1052 limits assumed): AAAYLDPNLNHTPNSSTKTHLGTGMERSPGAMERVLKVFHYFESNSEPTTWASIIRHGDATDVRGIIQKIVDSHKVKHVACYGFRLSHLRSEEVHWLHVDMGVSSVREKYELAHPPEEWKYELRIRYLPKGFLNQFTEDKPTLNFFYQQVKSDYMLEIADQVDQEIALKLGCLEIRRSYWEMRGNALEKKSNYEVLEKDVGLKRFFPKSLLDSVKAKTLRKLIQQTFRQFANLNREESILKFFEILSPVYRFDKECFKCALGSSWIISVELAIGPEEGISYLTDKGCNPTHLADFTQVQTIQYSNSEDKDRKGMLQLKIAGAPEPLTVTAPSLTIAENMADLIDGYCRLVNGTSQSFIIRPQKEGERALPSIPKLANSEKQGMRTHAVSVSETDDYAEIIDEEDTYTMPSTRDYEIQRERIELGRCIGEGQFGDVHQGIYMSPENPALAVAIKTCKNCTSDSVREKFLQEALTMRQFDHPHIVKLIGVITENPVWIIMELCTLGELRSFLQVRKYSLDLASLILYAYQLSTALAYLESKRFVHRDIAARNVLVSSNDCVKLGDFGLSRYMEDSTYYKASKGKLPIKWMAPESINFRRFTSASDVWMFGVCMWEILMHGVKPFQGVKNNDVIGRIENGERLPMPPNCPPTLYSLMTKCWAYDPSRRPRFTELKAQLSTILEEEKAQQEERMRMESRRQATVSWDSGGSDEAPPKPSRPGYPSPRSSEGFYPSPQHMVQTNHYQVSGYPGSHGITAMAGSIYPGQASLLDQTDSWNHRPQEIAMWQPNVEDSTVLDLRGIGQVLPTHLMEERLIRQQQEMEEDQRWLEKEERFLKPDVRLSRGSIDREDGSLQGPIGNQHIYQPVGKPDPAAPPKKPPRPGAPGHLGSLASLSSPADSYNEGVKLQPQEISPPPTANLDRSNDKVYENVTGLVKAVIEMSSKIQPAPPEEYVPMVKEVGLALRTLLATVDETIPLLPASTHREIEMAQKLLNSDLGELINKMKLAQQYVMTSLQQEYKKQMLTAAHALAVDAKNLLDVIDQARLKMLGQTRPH

[8] = Stability in EMEM cell assay buffer containing 10% FCS; type: physicochemical; settings: cattle
SNU-398 [9] = assay: Antiproliferative activity against human SNU-398 cells incubated for 7 to 14 days by methylene blue dye based anchorage independent growth assay; type: functional, cell-based; settings: time 7-14 day
cells [10] = settings: Homo sapiens, Hep3B, 144 h, read-out: pIC50 (converted)
Description: Antiproliferative activity against human Hep3B2.1-7 cells incubated for 6 days by CellTiter-Glo luminescent cell viability assay

cells [11] = settings: Homo sapiens, HuH-1, 144 h, read-out: pIC50 (converted)
Description: Antiproliferative activity against human HuH-1 cells incubated for 6 days by CellTiter-Glo luminescent cell viability assay

HuCCT-1 [12] = assay: cells; settings: Homo sapiens, HuCCT-1, 144 h, read-out: pIC50 (converted)
Description: Antiproliferative activity against human HuCCT-1 cells incubated for 6 days by CellTiter-Glo luminescent cell viability assay

[13] = target: Tyrosine-protein kinase Fes/Fps (Homo sapiens) (UniProt P07332); assay: Inhibition of FES (unknown origin) at 1 uM relative to control
Chain of Tyrosine-protein kinase Fes/Fps (Homo sapiens) (P07332 whole entry): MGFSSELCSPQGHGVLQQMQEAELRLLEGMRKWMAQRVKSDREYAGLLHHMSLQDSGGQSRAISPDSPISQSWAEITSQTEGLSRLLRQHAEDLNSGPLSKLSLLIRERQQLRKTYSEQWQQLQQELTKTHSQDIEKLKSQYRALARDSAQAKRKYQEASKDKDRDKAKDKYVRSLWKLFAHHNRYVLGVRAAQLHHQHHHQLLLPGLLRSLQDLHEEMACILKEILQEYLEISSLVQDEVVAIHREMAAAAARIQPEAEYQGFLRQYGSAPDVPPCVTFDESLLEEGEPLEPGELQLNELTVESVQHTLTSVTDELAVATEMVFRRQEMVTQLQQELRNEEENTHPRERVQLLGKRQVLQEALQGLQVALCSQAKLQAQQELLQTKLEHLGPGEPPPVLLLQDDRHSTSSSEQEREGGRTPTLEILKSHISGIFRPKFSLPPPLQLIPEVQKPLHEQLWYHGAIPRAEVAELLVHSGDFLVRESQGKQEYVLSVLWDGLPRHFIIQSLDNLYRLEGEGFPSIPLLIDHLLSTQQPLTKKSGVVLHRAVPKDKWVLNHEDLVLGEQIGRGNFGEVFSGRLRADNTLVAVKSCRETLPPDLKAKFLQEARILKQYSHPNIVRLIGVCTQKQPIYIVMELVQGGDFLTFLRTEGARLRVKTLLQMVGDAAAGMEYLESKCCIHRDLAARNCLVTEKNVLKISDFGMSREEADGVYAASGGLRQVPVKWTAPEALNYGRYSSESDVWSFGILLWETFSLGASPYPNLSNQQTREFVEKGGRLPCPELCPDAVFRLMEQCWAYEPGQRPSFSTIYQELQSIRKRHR

A549 [14] = assay: Induction of general kinase degradation in human A549 cells at 3 uM incubated for 18 hrs by mass spectrometry based total proteome analysis; type: functional, cell-based
SK-HEP1 [15] = assay: Antiproliferative activity against human SK-HEP1 cells incubated for 7 to 14 days by methylene blue dye based anchorage independent growth assay; type: functional, cell-based; settings: time 7-14 day
C32 = assay: Antiproliferative activity against C32 in human […] cells at 3 uM incubated for 21 days; type: functional, cell-based; settings: time 21.0 day
[16] = Permeability in human Caco-2 cells; type: ADME, cell-based
SNU-423 [17] = assay: cells; settings: Homo sapiens, SNU-423, 144 h, read-out: pIC50 (converted)
Description: Antiproliferative activity against human SNU-423 cells incubated for 6 days by CellTiter-Glo luminescent cell viability assay

[18] = target: T1, von Hippel-Lindau disease tumor suppressor/Focal adhesion kinase 1; assay: Protac activity at VHL/PTK2 in human HLF1 cells assessed as induction of PTK2 degradation incubated for 18 hrs by protein capillary electrophoresis method relative to control; type: cell-based
Target sequence in this assay (P40337 whole entry partner): as the sequence (P40337 whole entry) above
Target sequence in this assay (Q05397 2-1052 limits assumed): as the sequence (Q05397 2-1052 limits assumed) above

[19] = target: Retinal rod rhodopsin-sensitive cGMP 3',5'-cyclic phosphodiesterase subunit delta (Homo sapiens) (UniProt O43924); assay: Induction of PDE6D degradation in human A549 cells at 100 nM to 10000 nM incubated for 18 hrs by immunoblot analysis based protein capillary electrophoresis; type: cell-based
SNU-423 [20] = assay: Antiproliferative activity against human SNU-423 cells incubated for 7 to 14 days by methylene blue dye based anchorage independent growth assay; type: functional, cell-based; settings: time 7-14 day
[21] = target: T1, von Hippel-Lindau disease tumor suppressor/Focal adhesion kinase 1; assay: Protac activity at VHL/PTK2 in human HuH-1 cells assessed as induction of PTK2 degradation incubated for 18 hrs by protein capillary electrophoresis method relative to control; type: cell-based
Target sequence in this assay (P40337 whole entry partner): as the sequence (P40337 whole entry) above
Target sequence in this assay (Q05397 2-1052 limits assumed): as the sequence (Q05397 2-1052 limits assumed) above

HepG2 [22] = assay: cells; settings: Homo sapiens, HepG2, 144 h, read-out: pIC50 (converted)
Description: Antiproliferative activity against human HepG2 cells incubated for 6 days by CellTiter-Glo luminescent cell viability assay

[23] = target: T1, von Hippel-Lindau disease tumor suppressor/Focal adhesion kinase 1; assay: Protac activity at VHL/PTK2 in human A549 cells assessed as induction of PTK2 degradation at 1 to 100000 nM incubated for 18 hrs in presence of NEDD8 inhibitor […] by protein capillary electrophoresis method; type: cell-based; settings: dose 1-100000 nM
Target sequence in this assay (P40337 whole entry partner): as the sequence (P40337 whole entry) above
Target sequence in this assay (Q05397 2-1052 limits assumed): as the sequence (Q05397 2-1052 limits assumed) above

Huh-7 [24] = assay: cells; settings: Homo sapiens, Huh-7, 144 h, read-out: pIC50 (converted)
Description: Antiproliferative activity against human Huh-7 cells incubated for 6 days by CellTiter-Glo luminescent cell viability assay

SNU-387 [25] = assay: cells; settings: Homo sapiens, SNU-387, 144 h, read-out: pIC50 (converted)
Description: Antiproliferative activity against human SNU-387 cells incubated for 6 days by CellTiter-Glo luminescent cell viability assay

cells [26] = settings: Homo sapiens, HLF1, 144 h, read-out: pIC50 (converted)
Description: Antiproliferative activity against human HLF1 cells incubated for 6 days by CellTiter-Glo luminescent cell viability assay

HLE [27] = assay: cells; settings: Homo sapiens, 144 h, read-out: pIC50 (converted)
Description: Antiproliferative activity against human HLE cells incubated for 6 days by CellTiter-Glo luminescent cell viability assay

[28] = target: Leucine-rich repeat serine/threonine-protein kinase 2 (Homo sapiens) (UniProt Q5S007); assay: Inhibition of LRRK2 (unknown origin) at 1 uM relative to control
HuH-1 = assay: Antiproliferative activity against human HuH-1 cells incubated for 7 to 14 days by methylene blue dye based anchorage independent growth assay; type: functional, cell-based; settings: time 7-14 day
Huh-7 [29] = assay: Antiproliferative activity against human Huh-7 cells incubated for 7 to 14 days by methylene blue dye based anchorage independent growth assay; type: functional, cell-based; settings: time 7-14 day
CFPAC-1 = assay: Antiproliferative activity against C32 in human CFPAC-1 cells at 3 uM incubated for 21 day; type: functional, cell-based
HSC-3 = assay: Antiproliferative activity against HSC-3 in human […] cells at 3 uM incubated for 21 days; type: functional, cell-based; settings: time 21.0 day
Hep3B = assay: Antiproliferative activity against human Hep3B2.1-7 cells incubated for 7 to 14 days by methylene blue dye based anchorage independent growth assay; type: functional, cell-based; settings: time 7-14 day
HepG2 [30] = assay: Antiproliferative activity against human HepG2 cells incubated for 7 to 14 days by methylene blue dye based anchorage independent growth assay; type: functional, cell-based; settings: time 7-14 day
[31] = Fraction unbound in 10% FCS; type: ADME, cell-free, Bos taurus; settings: cattle, 10% fetal calf serum (FCS)
HLF1 = assay: Antiproliferative activity against human HLF1 cells incubated for 7 to 14 days by methylene blue dye based anchorage independent growth assay; type: functional, cell-based; settings: time 7-14 day
HuCCT-1 [32] = assay: Antiproliferative activity against human HuCCT-1 cells incubated for 7 to 14 days by methylene blue dye based anchorage independent growth assay; type: functional, cell-based; settings: time 7-14 day
SNU-398 [33] = assay: cells; settings: Homo sapiens, SNU-398, 144 h, read-out: pIC50 (converted)
Description: Antiproliferative activity against human SNU-398 cells incubated for 6 days by CellTiter-Glo luminescent cell viability assay

[34] = target: T2, Protein cereblon/Focal adhesion kinase 1 (Homo sapiens, UniProt Q05397+Q96SW2); assay: Protac activity at CRBN/PTK2 in human SNU-387 cells assessed as induction of PTK2 degradation incubated for 18 hrs by protein capillary electrophoresis method; type: cell-based
Target sequence in this assay (Q05397 whole entry): as the sequence (Q05397 whole entry) above
Target sequence in this assay (Q96SW2 whole entry): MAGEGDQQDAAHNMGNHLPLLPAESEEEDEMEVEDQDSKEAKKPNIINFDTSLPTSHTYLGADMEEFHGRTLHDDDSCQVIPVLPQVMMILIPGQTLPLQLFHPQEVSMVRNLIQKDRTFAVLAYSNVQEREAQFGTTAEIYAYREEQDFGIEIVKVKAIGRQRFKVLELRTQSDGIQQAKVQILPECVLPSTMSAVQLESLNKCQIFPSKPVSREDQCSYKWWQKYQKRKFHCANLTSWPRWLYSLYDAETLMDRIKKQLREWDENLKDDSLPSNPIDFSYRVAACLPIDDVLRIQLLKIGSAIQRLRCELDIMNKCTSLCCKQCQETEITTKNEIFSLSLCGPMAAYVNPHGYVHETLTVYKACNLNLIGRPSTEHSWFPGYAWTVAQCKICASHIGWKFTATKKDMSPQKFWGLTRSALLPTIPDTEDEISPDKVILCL

[35] = target: T2, Protein cereblon/Focal adhesion kinase 1; assay: Protac activity at CRBN/PTK2 in human Huh-7 cells assessed as induction of PTK2 degradation incubated for 18 hrs by protein capillary electrophoresis method relative to control; type: cell-based
Target sequence in this assay (Q05397 2-1052 limits assumed): as the sequence (Q05397 2-1052 limits assumed) above
Target sequence in this assay (Q96SW2 whole entry partner): as the sequence (Q96SW2 whole entry) above

Chain of Focal adhesion kinase 1 (Q05397 whole entry, the tested form may be a part): as the sequence (Q05397 whole entry) above

IC50 (Focal adhesion kinase 1)	Activity [2]	IC50 (SK-HEP1 [6])	Stabilty [8]	IC50 (cells [10])	IC50 (cells [11])	IC50 (HuCCT-1 [12])	permeability [16]	IC50 (SNU-423 [17])	Activity [19]	IC50 (HepG2 [22])	IC50 (Huh-7 [24])	SMILES	Activity (SNU-387 [1])	Activity (A549 [3])	Activity (HLE [4])	Activity (SNU-398 [9])	Activity (A549 [14])	Activity (SK-HEP1 [15])	Activity (C32)	Activity (SNU-423 [20])	also measured
0.019 µM	Active	7.94 µM	Stable	6.31 µM	20 µM	6.31 µM	Impermeable	6.31 µM	Active	> 25.1 µM	3.98 µM	COc1cc(C(=O)NCCOCCOCCOCC(=O)N[C@H](C(=O)N2C[C@H](O)C[C@H]2C(=O)NCc2ccc(-c3scnc3C)cc2)C(C)(C)C)ccc1Nc1ncc(C(F)(F)F)c(Oc2cccc3c2C(=O)CC3)n1	inactive	inactive	inactive	inactive	inactive	inactive	inactive	inactive	pDC50 [5]: 7.1; TIME [7]: 72 h; inhibition [13]: > 90%; Emax [18]: 66%; Emax [21]: 79%; Activity [23]: inactive; IC50 (SNU-387 [25]): 5.01 µM; IC50 (cells [26]): > 25.1 µM; IC50 (HLE [27]): 10 µM; inhibition [28]: > 90%; Activity (HuH-1): inactive; Activity (Huh-7 [29]): inactive; Activity (CFPAC-1): inactive; Activity (HSC-3): inactive; Activity (Hep3B): inactive; Activity (HepG2 [30]): inactive; fraction unbound [31]: 0.113; Activity (HLF1): inactive; Activity (HuCCT-1 [32]): inactive; IC50 (SNU-398 [33]): 7.94 µM
0.018 µM	inactive	1.58 µM	Unstable	25.1 µM	25.1 µM	> 25.1 µM	Impermeable	20 µM	inactive	> 25.1 µM	> 25.1 µM	COc1cc(C(=O)NCCOCCOCCOCCC(=O)Nc2cccc3c2C(=O)N(C2CCC(=O)NC2=O)C3=O)ccc1Nc1ncc(C(F)(F)F)c(Oc2cccc3c2C(=O)CC3)n1 (stereo not given)	inactive	inactive	inactive	inactive	inactive	inactive	inactive	inactive	pDC50 [34]: 7.6; IC50 (SNU-387 [25]): > 25.1 µM; IC50 (cells [26]): > 25.1 µM; IC50 (HLE [27]): > 25.1 µM; Activity (HuH-1): inactive; Activity (Huh-7 [29]): inactive; Activity (CFPAC-1): inactive; Emax [35]: 93%; Activity (HSC-3): inactive; Activity (Hep3B): inactive; Activity (HepG2 [30]): inactive; fraction unbound [31]: 0.04; Activity (HLF1): inactive; Activity (HuCCT-1 [32]): inactive; IC50 (SNU-398 [33]): > 25.1 µM
